Laboratory results as given in ChEMBL document CHEMBL1201862, “PubChem BioAssay data set” (2004).
Values belong to the molecule of their own block, whether it stands above or below them. Activity calls are given as the source filed them.

Key:
[1] = molecular target: Nucleotide-binding oligomerization domain-containing protein 2 (Homo sapiens, UniProt Q9HC29); experiment: inhibition of NOD2-driven NF-kB reporter – cell-based, luminescence, uHTS, HEK293 (AID 1566); format: functional
[2] = test system: HEK293; experiment: inhibition of NOD1-driven NF-kB reporter – cell-based, luminescence, uHTS, primary screen (AID 1578); format: functional; conditions: Homo sapiens
[3] = test system: HEK293; experiment: cells; format: functional, cell-based; conditions: Homo sapiens
[4] = test system: HEK293; experiment: cells; format: functional, cell-based; conditions: Homo sapiens; remark: listed apart in the source
[5] = test system: HEK293; experiment: NOD2 signaling inhibitors in MDP-stimulated cells, cell-based, uHTS, luminescence (AID 2001); format: functional; conditions: Homo sapiens
[6] = test system: HEK293; experiment: cells; format: functional, cell-based; conditions: Homo sapiens; remark: listed apart in the source
[7] = molecular target: Neurotensin receptor type 1 (Homo sapiens, UniProt P30989); format: functional;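 further: Image-based confirmatory dose-response assay measuring agonist activity at NTR1; NTR1-expressing U2OS osteosarcoma cells imaged for beta-arrestin GFP spot formation; agonist potency where compounds increase beta-arrestin recruitment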
[8] = Luminescence-based cell-based high throughput dose response assay to identify activators of the DAF-12 from the parasite S. stercoralis (ssDAF-12).; format: functional
[9] = molecular target: T1, Microphthalmia-associated transcription factor (Homo sapiens, UniProt O75030); experiment: reducers of TRPM1 reporter luminescence, concentration series – cell-based, SK-MEL-5, cherry-picked, set 3, MITF inhibitor project, dose response (AID 493073); format: functional;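 further: SK-MEL-5 melanoma cells with luciferase driven by the MITF target TRPM1 promoter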
T1 sequence (O75030 whole entry): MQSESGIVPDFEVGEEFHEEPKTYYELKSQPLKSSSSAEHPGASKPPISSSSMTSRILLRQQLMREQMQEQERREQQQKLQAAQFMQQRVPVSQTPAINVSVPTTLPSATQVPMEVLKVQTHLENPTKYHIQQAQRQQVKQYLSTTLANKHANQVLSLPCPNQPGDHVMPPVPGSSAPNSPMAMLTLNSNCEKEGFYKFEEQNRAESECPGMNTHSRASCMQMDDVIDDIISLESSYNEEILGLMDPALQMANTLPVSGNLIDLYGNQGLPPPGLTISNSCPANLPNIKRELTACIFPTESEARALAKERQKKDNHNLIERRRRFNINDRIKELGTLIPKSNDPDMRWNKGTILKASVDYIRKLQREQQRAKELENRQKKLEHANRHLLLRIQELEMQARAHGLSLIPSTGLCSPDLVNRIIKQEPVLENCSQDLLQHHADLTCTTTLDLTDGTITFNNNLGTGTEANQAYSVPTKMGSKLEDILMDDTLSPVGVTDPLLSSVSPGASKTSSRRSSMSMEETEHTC

[10] = Fluorescence-based cell-based high throughput dose response assay for inhibitors of the interaction of nucleotide-binding oligomerization domain containing 2 (NOD2) and the receptor-interacting serine-threonine kinase 2 (RIPK2).; format: functional, Homo sapiens; conditions: Homo sapiens
[11] = molecular target: T2, Cytochrome P450 3A4 (Homo sapiens, UniProt P08684); conditions: Potency
[12] = molecular target: Large T antigen (Simian virus 40, UniProt P03070); format: functional, Betapolyomavirus macacae;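 further: Confirmatory-stage PubChem screen for compounds that inhibit SV40 T antigen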
[13] = molecular target: T2, Cytochrome P450 3A4
[14] = molecular target: Cytochrome P450 2D6 (Homo sapiens, UniProt P10635);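 further: CYP2D6 member of a cytochrome P450 panel assay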
[15] = molecular target: T3, Alkaline phosphatase, tissue-nonspecific isozyme (Homo sapiens, UniProt P05186)
T3 sequence (P05186 whole entry): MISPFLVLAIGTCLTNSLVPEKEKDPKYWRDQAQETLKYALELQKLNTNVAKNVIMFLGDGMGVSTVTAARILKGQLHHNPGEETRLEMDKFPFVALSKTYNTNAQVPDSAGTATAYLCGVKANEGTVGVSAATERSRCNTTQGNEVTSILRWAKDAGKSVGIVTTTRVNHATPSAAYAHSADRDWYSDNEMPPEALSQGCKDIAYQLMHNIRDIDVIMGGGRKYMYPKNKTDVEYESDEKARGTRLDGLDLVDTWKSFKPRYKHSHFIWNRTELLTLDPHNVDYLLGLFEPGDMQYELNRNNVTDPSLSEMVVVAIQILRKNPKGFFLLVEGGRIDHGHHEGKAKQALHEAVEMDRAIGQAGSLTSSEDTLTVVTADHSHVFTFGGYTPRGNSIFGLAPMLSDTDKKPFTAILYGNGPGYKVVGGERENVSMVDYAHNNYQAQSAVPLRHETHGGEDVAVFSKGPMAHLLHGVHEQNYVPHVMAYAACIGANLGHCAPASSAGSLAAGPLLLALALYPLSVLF

[16] = molecular target: Bcl-2-like protein 10 (Homo sapiens, UniProt Q9HD36); experiment: Bcl-B/TR3 peptide binding disruption – biochemical, fluorescence polarization, FITC-TR3 peptide, selectivity assay for Bfl-1 inhibitor project, primary screen (AID 748);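 further: fluorescence polarization from a fluorescein-labelled TR3 peptide binding purified Bcl-B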
[17] = NIH3T3 cell viability loss – ATP luminescence, mouse fibroblasts, counter-screen, dose response (AID 2010); format: functional, cell-based;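 further: cells exposed to compound for about 90 hours before reading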
[18] = Trypanosoma cruzi growth suppression in host cells – NIH3T3 host cells, beta-gal luminescence, confirmation (AID 2044); format: functional, cell-based;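 further: intracellular parasites grown in NIH/3T3 mouse fibroblasts as host cells; luminescent beta-galactosidase reporter signal from transgenic T. cruzi replicating inside host cells; inhibitors lower the luminescence signal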
[19] = molecular target: G-protein coupled receptor 55 (Homo sapiens, UniProt Q9Y2T6); experiment: selective activators of receptor GPR55 – imaging, U2OS cells, beta-arrestin-GFP redistribution, primary screen (AID 1961); format: functional
[20] = molecular target: T4, Coagulation factor XII (Homo sapiens, UniProt P00748); experiment: Factor XIIa Dose Response Confirmation from Single Well HTS. [Related pubchem assays (depositor defined):AID701]; format: functional
T4 sequence (P00748 whole entry): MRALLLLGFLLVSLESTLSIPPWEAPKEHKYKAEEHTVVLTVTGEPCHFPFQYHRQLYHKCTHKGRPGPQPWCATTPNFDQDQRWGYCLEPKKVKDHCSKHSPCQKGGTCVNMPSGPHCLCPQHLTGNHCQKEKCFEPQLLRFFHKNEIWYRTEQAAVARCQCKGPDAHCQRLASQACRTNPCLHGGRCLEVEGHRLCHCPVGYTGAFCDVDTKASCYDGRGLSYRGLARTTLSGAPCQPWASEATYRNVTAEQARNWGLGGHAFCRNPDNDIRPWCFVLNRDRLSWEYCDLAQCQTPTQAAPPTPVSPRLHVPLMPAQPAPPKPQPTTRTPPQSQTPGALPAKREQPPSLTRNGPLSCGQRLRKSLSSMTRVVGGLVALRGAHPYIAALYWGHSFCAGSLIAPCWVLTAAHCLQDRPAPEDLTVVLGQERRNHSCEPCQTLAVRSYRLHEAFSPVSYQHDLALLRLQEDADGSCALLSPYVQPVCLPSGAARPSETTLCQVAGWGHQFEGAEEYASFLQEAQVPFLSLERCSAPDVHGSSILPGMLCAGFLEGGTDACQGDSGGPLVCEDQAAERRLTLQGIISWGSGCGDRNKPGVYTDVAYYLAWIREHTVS

[21] = test system: HeLa; experiment: viability loss in HeLa cells – cell-based, 24 h, cherry-picked samples, cytotoxicity control, dose response (AID 504726); format: functional; conditions: Homo sapiens;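 further: potency for cytotoxicity as loss of luminescence signal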
[22] = molecular target: Protein Rev (Human immunodeficiency virus type 1 group M subtype B (isolate HXB2)(HIV-1), UniProt P04618); experiment: blockers of HIV Rev/RRE RNA complex – biochemical, fluorescence polarization, HIV-1, dose response (AID 434976); design: species or system Human immunodeficiency virus 1
[23] = molecular target: Female germline-specific tumor suppressor gld-1 (Caenorhabditis elegans, UniProt Q17339); experiment: blockers of GLD-1/TGE RNA complex formation – biochemical, fluorescence polarization, C. elegans, dose response (AID 2802);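 further: fluorescence polarization of labeled TGE RNA bound by purified gld-1 protein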
Female germline-specific tumor suppressor gld-1, sequence (Q17339 whole entry): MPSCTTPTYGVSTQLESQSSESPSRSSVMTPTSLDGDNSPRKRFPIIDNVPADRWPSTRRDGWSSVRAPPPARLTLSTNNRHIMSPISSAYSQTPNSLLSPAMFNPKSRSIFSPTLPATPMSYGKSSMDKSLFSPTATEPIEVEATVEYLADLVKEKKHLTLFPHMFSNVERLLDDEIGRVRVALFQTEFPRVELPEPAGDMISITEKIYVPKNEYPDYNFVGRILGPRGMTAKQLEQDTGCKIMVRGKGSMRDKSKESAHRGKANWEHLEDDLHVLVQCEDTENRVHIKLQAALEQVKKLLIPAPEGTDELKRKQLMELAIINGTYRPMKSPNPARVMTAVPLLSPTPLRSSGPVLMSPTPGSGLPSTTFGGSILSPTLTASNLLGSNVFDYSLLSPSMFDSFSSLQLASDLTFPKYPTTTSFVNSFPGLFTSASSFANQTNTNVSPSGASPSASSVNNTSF

G-protein coupled receptor 55, sequence (Q9Y2T6 whole entry): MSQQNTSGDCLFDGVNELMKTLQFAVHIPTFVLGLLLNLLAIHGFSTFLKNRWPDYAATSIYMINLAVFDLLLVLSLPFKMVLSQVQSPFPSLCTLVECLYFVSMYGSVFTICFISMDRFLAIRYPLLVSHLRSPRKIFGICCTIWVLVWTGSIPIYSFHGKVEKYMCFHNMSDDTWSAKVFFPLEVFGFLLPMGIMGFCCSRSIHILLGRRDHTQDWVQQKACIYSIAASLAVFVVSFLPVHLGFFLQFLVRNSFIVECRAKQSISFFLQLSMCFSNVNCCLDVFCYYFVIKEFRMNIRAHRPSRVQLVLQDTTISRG
T2 sequence (P08684 whole entry): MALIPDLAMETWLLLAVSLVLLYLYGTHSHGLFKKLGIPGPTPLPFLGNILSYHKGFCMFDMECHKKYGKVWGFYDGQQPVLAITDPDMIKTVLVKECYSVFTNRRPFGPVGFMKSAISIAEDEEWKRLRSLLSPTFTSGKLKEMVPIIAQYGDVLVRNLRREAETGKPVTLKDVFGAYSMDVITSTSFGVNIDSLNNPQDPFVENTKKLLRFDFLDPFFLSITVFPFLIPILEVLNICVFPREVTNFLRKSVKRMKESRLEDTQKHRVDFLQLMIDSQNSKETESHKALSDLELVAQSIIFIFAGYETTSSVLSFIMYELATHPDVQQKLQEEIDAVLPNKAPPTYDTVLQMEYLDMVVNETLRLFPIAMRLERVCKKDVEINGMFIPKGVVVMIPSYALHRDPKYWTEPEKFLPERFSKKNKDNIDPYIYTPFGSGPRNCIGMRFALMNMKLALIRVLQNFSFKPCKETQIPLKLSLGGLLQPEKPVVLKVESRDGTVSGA
Bcl-2-like protein 10, sequence (Q9HD36 whole entry): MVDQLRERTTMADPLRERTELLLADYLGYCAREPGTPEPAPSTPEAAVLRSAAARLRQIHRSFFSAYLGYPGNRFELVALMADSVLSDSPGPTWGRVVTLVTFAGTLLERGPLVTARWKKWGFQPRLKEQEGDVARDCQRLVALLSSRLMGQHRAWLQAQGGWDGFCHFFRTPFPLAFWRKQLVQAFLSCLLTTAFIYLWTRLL
Protein Rev, sequence (P04618 whole entry): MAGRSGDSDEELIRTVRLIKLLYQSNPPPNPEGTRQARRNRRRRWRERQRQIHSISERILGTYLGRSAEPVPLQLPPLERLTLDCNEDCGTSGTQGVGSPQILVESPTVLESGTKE
Cytochrome P450 2D6, sequence (P10635 whole entry): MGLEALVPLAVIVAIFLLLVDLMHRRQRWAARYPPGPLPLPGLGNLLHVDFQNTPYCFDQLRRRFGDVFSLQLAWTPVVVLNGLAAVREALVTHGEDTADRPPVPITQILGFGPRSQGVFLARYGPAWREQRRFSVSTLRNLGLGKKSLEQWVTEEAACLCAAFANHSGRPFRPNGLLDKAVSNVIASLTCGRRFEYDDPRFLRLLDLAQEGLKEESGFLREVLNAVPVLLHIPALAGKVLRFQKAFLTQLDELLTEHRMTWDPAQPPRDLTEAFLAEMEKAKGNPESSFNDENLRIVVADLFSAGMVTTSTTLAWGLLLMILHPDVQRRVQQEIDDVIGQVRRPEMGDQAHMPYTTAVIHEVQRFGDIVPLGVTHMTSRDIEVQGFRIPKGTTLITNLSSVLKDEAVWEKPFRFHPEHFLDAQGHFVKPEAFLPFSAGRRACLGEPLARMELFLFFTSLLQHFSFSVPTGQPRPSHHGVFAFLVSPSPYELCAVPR
Neurotensin receptor type 1, sequence (P30989 whole entry): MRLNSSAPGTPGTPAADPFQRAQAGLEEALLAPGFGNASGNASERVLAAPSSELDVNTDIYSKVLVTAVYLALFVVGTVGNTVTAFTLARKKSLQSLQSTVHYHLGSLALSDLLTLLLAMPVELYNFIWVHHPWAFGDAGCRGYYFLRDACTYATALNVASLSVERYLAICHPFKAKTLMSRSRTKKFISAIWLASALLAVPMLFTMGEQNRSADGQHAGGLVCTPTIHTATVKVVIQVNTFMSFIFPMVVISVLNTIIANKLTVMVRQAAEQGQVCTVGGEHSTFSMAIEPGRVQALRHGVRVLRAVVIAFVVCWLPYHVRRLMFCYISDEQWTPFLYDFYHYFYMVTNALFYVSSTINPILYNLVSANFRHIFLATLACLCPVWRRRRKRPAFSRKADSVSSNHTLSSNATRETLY
Nucleotide-binding oligomerization domain-containing protein 2, sequence (Q9HC29 whole entry, the tested form may be a part): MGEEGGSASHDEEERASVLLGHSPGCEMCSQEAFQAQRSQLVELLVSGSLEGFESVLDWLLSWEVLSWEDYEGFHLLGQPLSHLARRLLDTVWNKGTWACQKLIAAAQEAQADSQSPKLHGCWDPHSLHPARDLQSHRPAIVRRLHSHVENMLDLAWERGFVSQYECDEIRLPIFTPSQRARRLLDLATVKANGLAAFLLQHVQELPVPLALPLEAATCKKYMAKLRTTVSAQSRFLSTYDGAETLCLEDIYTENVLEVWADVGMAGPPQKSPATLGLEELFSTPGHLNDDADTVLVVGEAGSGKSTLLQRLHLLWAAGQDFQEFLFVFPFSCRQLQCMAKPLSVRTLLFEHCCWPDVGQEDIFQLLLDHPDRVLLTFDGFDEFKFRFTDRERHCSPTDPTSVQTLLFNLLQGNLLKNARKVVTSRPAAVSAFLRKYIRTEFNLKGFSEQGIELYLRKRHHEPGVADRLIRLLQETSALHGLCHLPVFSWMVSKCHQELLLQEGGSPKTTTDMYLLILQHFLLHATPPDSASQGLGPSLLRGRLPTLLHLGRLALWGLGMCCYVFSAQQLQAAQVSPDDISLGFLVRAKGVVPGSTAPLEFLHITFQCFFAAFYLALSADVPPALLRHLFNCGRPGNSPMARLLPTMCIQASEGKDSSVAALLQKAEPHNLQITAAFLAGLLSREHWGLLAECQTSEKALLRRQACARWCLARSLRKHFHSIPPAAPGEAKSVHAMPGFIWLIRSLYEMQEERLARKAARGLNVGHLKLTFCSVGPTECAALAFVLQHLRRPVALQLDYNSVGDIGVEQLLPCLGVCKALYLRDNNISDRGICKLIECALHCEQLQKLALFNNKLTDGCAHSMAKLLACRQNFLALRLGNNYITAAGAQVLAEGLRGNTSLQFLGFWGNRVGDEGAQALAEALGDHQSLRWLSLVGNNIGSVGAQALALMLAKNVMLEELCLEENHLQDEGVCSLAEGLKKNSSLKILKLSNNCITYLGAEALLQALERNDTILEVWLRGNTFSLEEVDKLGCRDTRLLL
Large T antigen, sequence (P03070 whole entry): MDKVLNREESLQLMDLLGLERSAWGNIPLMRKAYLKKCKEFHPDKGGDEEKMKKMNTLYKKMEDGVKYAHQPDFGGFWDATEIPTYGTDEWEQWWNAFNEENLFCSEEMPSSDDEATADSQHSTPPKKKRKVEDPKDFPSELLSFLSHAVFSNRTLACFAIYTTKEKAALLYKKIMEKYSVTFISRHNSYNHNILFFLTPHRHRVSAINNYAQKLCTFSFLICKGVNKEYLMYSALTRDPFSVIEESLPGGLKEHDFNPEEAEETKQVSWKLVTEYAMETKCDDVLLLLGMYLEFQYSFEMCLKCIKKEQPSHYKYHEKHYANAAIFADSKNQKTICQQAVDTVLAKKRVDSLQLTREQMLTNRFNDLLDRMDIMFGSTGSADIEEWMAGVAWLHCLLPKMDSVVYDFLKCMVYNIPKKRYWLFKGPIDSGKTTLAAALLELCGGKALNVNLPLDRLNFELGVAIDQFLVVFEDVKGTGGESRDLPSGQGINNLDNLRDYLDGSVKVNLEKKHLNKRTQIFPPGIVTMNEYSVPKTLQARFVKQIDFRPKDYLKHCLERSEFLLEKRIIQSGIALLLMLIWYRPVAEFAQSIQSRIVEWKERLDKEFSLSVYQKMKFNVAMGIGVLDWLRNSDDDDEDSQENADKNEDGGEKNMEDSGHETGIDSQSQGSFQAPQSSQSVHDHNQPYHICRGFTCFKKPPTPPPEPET

SMILES: Cc1nc(N2CCN(C(=O)COc3ccccc3)CC2)c2c(C)c(C)sc2n1
EC50 [1]: 7.34 µM (active)
EC50 [2]: 5.68 µM (active)
IC50 [3]: 5.32 µM (active)
IC50 [4]: 11.9 µM (active)
IC50 [5]: 5.95 µM (active)
IC50 [6]: > 20 µM (inactive)

SMILES: Cc1cc(N2CCOCC2)ccc1/C=C\[N+](=O)[O-]
EC50 [7]: 22.4 µM (inactive)
IC50 [8]: > 67.5 µM (inactive)
AC50 [9]: 22.5 µM (active)
IC50 [10]: 4.34 µM (active)

AC50 [11]: 20 µM (inconclusive)
SMILES: COC(=O)c1ccc(C23CC4(C2)[C@H](CN(C)[C@@H]4c2ccccc2)C3c2ccc(Cl)nc2)cc1 (some centres undefined)

IC50 [12]: 18.3 µM (active)
SMILES: CC(C)CC1=NN2C(=N)/C(=C\c3coc4ccccc4c3=O)C(=O)N=C2S1

AC50 [13]: 22.4 µM (inconclusive)
AC50 [14]: 0.00562 µM (inconclusive)
EC50 [15]: 55.5 µM (not active)
SMILES: Cc1cc([N+](=O)[O-])nn1CC(=O)NN=C(S)Nc1ccc(F)cc1

SMILES: Cc1ccc(CNc2ccc3c(c2)OCO3)cc1
IC50 [16]: > 3.13 µM (inactive)
EC50 [17]: > 60 µM (not active)
EC50 [18]: 1.52 µM (active)

EC50 [19]: 4.03 µM (active)
SMILES: O=C(/C=C/c1cccc(Br)c1)c1ccc2c(c1)OCO2

IC50 [20]: > 50 µM (inactive)
SMILES: FC(F)(F)c1cnc(Oc2ccc(-c3nnco3)cc2)c(Cl)c1

EC50 [19]: > 32 µM (inactive)
SMILES: CCN(c1ccccc1)S(=O)(=O)c1ccc(C(=O)N(CCN(C)C)c2nc3c(F)cc(F)cc3s2)cc1

SMILES: CN(C)c1ccc(/C=C/C(=O)c2ccc(O)cc2)cc1[N+](=O)[O-]
AC50 [21]: 51.7 µM (active)

SMILES: COc1ccc(NC(=O)Cc2ccccc2)cn1
IC50 [22]: > 25.2 µM (not active)
IC50 [23]: 15.1 µM (inactive)
